Here are results for nine molecules from ChEMBL document CHEMBL2010748, “Structure-Activity Relationship Studies of HIV-1 Integrase Oligonucleotide Inhibitors” (ACS Med Chem Lett, 2011).

The structures appear in SMILES notation.

Sequence of Human immunodeficiency virus type 1 integrase (Q7ZJM1 whole entry): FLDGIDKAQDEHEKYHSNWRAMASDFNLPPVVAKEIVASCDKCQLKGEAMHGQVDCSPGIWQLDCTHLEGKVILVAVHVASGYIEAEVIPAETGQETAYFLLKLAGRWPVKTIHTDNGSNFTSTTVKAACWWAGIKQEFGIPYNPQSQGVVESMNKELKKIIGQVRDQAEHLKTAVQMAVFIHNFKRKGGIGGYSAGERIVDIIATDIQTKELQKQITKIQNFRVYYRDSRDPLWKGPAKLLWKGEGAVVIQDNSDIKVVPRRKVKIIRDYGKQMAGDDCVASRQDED

This experiment has as its target Human immunodeficiency virus type 1 integrase (Human immunodeficiency virus 1, UniProt Q7ZJM1). As to the kind of experiment: Inhibition of Human immunodeficiency virus 1 integrase 3'-processing activity expressed in Escherichia coli using 21-mer DNA and Mg2+ after 2 hrs by polyacrylamide gel electrophoresis.
By IC50 is commonly meant the concentration at which inhibition is half-maximal. A lower IC50 goes with greater potency. Molecule `Cc1cn([C@H]2C[C@H](OP(=O)(O)OC[C@H]3O[C@@H](n4cc(C)c(=O)[nH]c4=O)C[C@@H]3OP(=O)(O)OC[C@H]3O[C@@H](n4cc(C)c(=O)[nH]c4=O)C[C@@H]3OP(=O)(O)OC[C@H]3O[C@@H](n4cnc5c(=O)[nH]c(N)nc54)C[C@@H]3OP(=O)(O)OC[C@H]3O[C@@H](n4cc(C)c(=O)[nH]c4=O)C[C@@H]3OP(=O)(O)OC[C@H]3O[C@@H](n4cnc5c(=O)[nH]c(N)nc54)C[C@@H]3OP(=O)(O)OC[C@H]3O[C@@H](n4cc(C)c(=O)[nH]c4=O)C[C@@H]3OP(=O)(O)OCCCCCCNC(=S)Nc3ccc(-c4c5cc(Br)c(=O)c(Br)c-5oc5c(Br)c(O)c(Br)cc45)c(C(=O)O)c3)[C@@H](COP(=O)(O)O[C@H]3C[C@H](n4cc(C)c(=O)[nH]c4=O)O[C@@H]3COP(=O)(O)O[C@H]3C[C@H](n4cc(C)c(=O)[nH]c4=O)O[C@@H]3COP(=O)(O)O[C@H]3C[C@H](n4cnc5c(=O)[nH]c(N)nc54)O[C@@H]3COP(=O)(O)O[C@H]3C[C@H](n4cnc5c(=O)[nH]c(N)nc54)O[C@@H]3CO)O2)c(=O)[nH]c1=O` returned an IC50 of 0.05 µM. `Cc1cn([C@H]2C[C@H](OP(=O)(O)OC[C@H]3O[C@@H](n4cc(C)c(=O)[nH]c4=O)C[C@@H]3OP(=O)(O)OC[C@H]3O[C@@H](n4cc(C)c(=O)[nH]c4=O)C[C@@H]3OP(=O)(O)OC[C@H]3O[C@@H](n4cnc5c(=O)[nH]c(N)nc54)C[C@@H]3OP(=O)(O)OC[C@H]3O[C@@H](n4cc(C)c(=O)[nH]c4=O)C[C@@H]3OP(=O)(O)OC[C@H]3O[C@@H](n4cnc5c(=O)[nH]c(N)nc54)C[C@@H]3OP(=O)(O)OC[C@H]3O[C@@H](n4cc(C)c(=O)[nH]c4=O)C[C@@H]3O)[C@@H](COP(=O)(O)O[C@H]3C[C@H](n4cc(C)c(=O)[nH]c4=O)O[C@@H]3COP(=O)(O)O[C@H]3C[C@H](n4cc(C)c(=O)[nH]c4=O)O[C@@H]3COP(=O)(O)O[C@H]3C[C@H](n4cnc5c(=O)[nH]c(N)nc54)O[C@@H]3COP(=O)(O)O[C@H]3C[C@H](n4cnc5c(=O)[nH]c(N)nc54)O[C@@H]3COP(=O)(O)O[C@@H]3C[C@@H](CO)N(C(=O)CCCCCNC(=O)c4ccc(C(=O)O)c(-c5c6ccc(=O)cc-6oc6cc(O)ccc56)c4)C3)O2)c(=O)[nH]c1=O`: the half-maximal inhibitory concentration (IC50) turned out to be 0.32 µM.

In turn, `Cc1cn([C@H]2C[C@H](OP(=O)(O)OC[C@H]3O[C@@H](n4cc(C)c(=O)[nH]c4=O)C[C@@H]3OP(=O)(O)OC[C@H]3O[C@@H](n4cc(C)c(=O)[nH]c4=O)C[C@@H]3OP(=O)(O)OC[C@H]3O[C@@H](n4cnc5c(=O)[nH]c(N)nc54)C[C@@H]3OP(=O)(O)OC[C@H]3O[C@@H](n4cc(C)c(=O)[nH]c4=O)C[C@@H]3OP(=O)(O)OC[C@H]3O[C@@H](n4cnc5c(=O)[nH]c(N)nc54)C[C@@H]3OP(=O)(O)OC[C@H]3O[C@@H](n4cc(C)c(=O)[nH]c4=O)C[C@@H]3O)[C@@H](COP(=O)(O)O[C@H]3C[C@H](n4cc(C)c(=O)[nH]c4=O)O[C@@H]3COP(=O)(O)O[C@H]3C[C@H](n4cc(C)c(=O)[nH]c4=O)O[C@@H]3COP(=O)(O)O[C@H]3C[C@H](n4cnc5c(=O)[nH]c(N)nc54)O[C@@H]3COP(=O)(O)O[C@H]3C[C@H](n4cnc5c(=O)[nH]c(N)nc54)O[C@@H]3COP(=O)(O)OCCCCCCNC(=O)c3ccc(C(=O)O)c(-c4c5ccc(=O)cc-5oc5cc(O)ccc45)c3)O2)c(=O)[nH]c1=O` showed an IC50 of 0.31 µM.

Regarding `Cc1cn([C@H]2C[C@H](OP(=O)(O)OC[C@H]3O[C@@H](n4cc(C)c(=O)[nH]c4=O)C[C@@H]3OP(=O)(O)OC[C@H]3O[C@@H](n4cc(C)c(=O)[nH]c4=O)C[C@@H]3OP(=O)(O)OC[C@H]3O[C@@H](n4cnc5c(=O)[nH]c(N)nc54)C[C@@H]3OP(=O)(O)OC[C@H]3O[C@@H](n4cc(C)c(=O)[nH]c4=O)C[C@@H]3OP(=O)(O)OC[C@H]3O[C@@H](n4cnc5c(=O)[nH]c(N)nc54)C[C@@H]3OP(=O)(O)OC[C@H]3O[C@@H](n4cc(C)c(=O)[nH]c4=O)C[C@@H]3OP(=O)(O)OCCCCCCNC(=S)Nc3ccc(-c4c5ccc(=O)cc-5oc5cc(O)ccc45)c(C(=O)O)c3)[C@@H](COP(=O)(O)O[C@H]3C[C@H](n4cc(C)c(=O)[nH]c4=O)O[C@@H]3COP(=O)(O)O[C@H]3C[C@H](n4cc(C)c(=O)[nH]c4=O)O[C@@H]3COP(=O)(O)O[C@H]3C[C@H](n4cnc5c(=O)[nH]c(N)nc54)O[C@@H]3COP(=O)(O)O[C@H]3C[C@H](n4cnc5c(=O)[nH]c(N)nc54)O[C@@H]3CO)O2)c(=O)[nH]c1=O`, the IC50 worked out at 0.315 µM. The molecule `Cc1cn([C@H]2C[C@H](OP(=O)(O)OC[C@H]3O[C@@H](n4cc(C)c(=O)[nH]c4=O)C[C@@H]3OP(=O)(O)OC[C@H]3O[C@@H](n4cc(C)c(=O)[nH]c4=O)C[C@@H]3OP(=O)(O)OC[C@H]3O[C@@H](n4cnc5c(=O)[nH]c(N)nc54)C[C@@H]3OP(=O)(O)OC[C@H]3O[C@@H](n4cc(C)c(=O)[nH]c4=O)C[C@@H]3OP(=O)(O)OC[C@H]3O[C@@H](n4cnc5c(=O)[nH]c(N)nc54)C[C@@H]3OP(=O)(O)OC[C@H]3O[C@@H](n4cc(C)c(=O)[nH]c4=O)C[C@@H]3O)[C@@H](COP(=O)(O)O[C@H]3C[C@H](n4cc(C)c(=O)[nH]c4=O)O[C@@H]3COP(=O)(O)O[C@H]3C[C@H](n4cc(C)c(=O)[nH]c4=O)O[C@@H]3COP(=O)(O)O[C@H]3C[C@H](n4cnc5c(=O)[nH]c(N)nc54)O[C@@H]3COP(=O)(O)O[C@H]3C[C@H](n4cnc5c(=O)[nH]c(N)nc54)O[C@@H]3COP(=O)(O)OCCCCCCNC(=O)c3cc(Cl)c(C(=O)O)c(-c4c5cc(Cl)c(=O)c(Cl)c-5oc5c(Cl)c(O)c(Cl)cc45)c3Cl)O2)c(=O)[nH]c1=O` yielded an IC50 of 0.055 µM. On to `Cc1cn([C@H]2C[C@H](OP(=O)(O)OC[C@H]3O[C@@H](n4cc(C)c(=O)[nH]c4=O)C[C@@H]3OP(=O)(O)OC[C@H]3O[C@@H](n4cc(C)c(=O)[nH]c4=O)C[C@@H]3OP(=O)(O)OC[C@H]3O[C@@H](n4cnc5c(=O)[nH]c(N)nc54)C[C@@H]3OP(=O)(O)OC[C@H]3O[C@@H](n4cc(C)c(=O)[nH]c4=O)C[C@@H]3OP(=O)(O)OC[C@H]3O[C@@H](n4cnc5c(=O)[nH]c(N)nc54)C[C@@H]3OP(=O)(O)OC[C@H]3O[C@@H](n4cc(C)c(=O)[nH]c4=O)C[C@@H]3O)[C@@H](COP(=O)(O)O[C@H]3C[C@H](n4cc(C)c(=O)[nH]c4=O)O[C@@H]3COP(=O)(O)O[C@H]3C[C@H](n4cc(C)c(=O)[nH]c4=O)O[C@@H]3COP(=O)(O)O[C@H]3C[C@H](n4cnc5c(=O)[nH]c(N)nc54)O[C@@H]3COP(=O)(O)O[C@H]3C[C@H](n4cnc5c(=O)[nH]c(N)nc54)O[C@@H]3COP(=O)(O)OCCCCCCNC(=O)c3cc(Cl)c(-c4c5cc(Cl)c(O)c(Cl)c5nc5c(Cl)c(O)c(Cl)cc45)c(C(=O)O)c3Cl)O2)c(=O)[nH]c1=O`, for which half-maximal inhibition (IC50) was put at 0.052 µM. For `Cc1cn([C@H]2C[C@H](OP(=O)(O)OC[C@H]3O[C@@H](n4cc(C)c(=O)[nH]c4=O)C[C@@H]3OP(=O)(O)OC[C@H]3O[C@@H](n4cc(C)c(=O)[nH]c4=O)C[C@@H]3OP(=O)(O)OC[C@H]3O[C@@H](n4cnc5c(=O)[nH]c(N)nc54)C[C@@H]3OP(=O)(O)OC[C@H]3O[C@@H](n4cc(C)c(=O)[nH]c4=O)C[C@@H]3OP(=O)(O)OC[C@H]3O[C@@H](n4cnc5c(=O)[nH]c(N)nc54)C[C@@H]3OP(=O)(O)OC[C@H]3O[C@@H](n4cc(C)c(=O)[nH]c4=O)C[C@@H]3O)[C@@H](COP(=O)(O)O[C@H]3C[C@H](n4cc(C)c(=O)[nH]c4=O)O[C@@H]3COP(=O)(O)O[C@H]3C[C@H](n4cc(C)c(=O)[nH]c4=O)O[C@@H]3COP(=O)(O)O[C@H]3C[C@H](n4cnc5c(=O)[nH]c(N)nc54)O[C@@H]3COP(=O)(O)O[C@H]3C[C@H](n4cnc5c(=O)[nH]c(N)nc54)O[C@@H]3COP(=O)(O)OCCCCCCNC(=O)c3cc(Cl)c(C(=O)O)c(-c4c5cc(Cl)c(=O)cc-5oc5cc(O)c(Cl)cc45)c3Cl)O2)c(=O)[nH]c1=O` the value was 0.29 µM; for `COc1cc2c(-c3cc(C(=O)NCCCCCCOP(=O)(O)OC[C@H]4O[C@@H](n5cnc6c(=O)[nH]c(N)nc65)C[C@@H]4OP(=O)(O)OC[C@H]4O[C@@H](n5cnc6c(=O)[nH]c(N)nc65)C[C@@H]4OP(=O)(O)OC[C@H]4O[C@@H](n5cc(C)c(=O)[nH]c5=O)C[C@@H]4OP(=O)(O)OC[C@H]4O[C@@H](n5cc(C)c(=O)[nH]c5=O)C[C@@H]4OP(=O)(O)OC[C@H]4O[C@@H](n5cc(C)c(=O)[nH]c5=O)C[C@@H]4OP(=O)(O)OC[C@H]4O[C@@H](n5cc(C)c(=O)[nH]c5=O)C[C@@H]4OP(=O)(O)OC[C@H]4O[C@@H](n5cc(C)c(=O)[nH]c5=O)C[C@@H]4OP(=O)(O)OC[C@H]4O[C@@H](n5cnc6c(=O)[nH]c(N)nc65)C[C@@H]4OP(=O)(O)OC[C@H]4O[C@@H](n5cc(C)c(=O)[nH]c5=O)C[C@@H]4OP(=O)(O)OC[C@H]4O[C@@H](n5cnc6c(=O)[nH]c(N)nc65)C[C@@H]4OP(=O)(O)OC[C@H]4O[C@@H](n5cc(C)c(=O)[nH]c5=O)C[C@@H]4O)ccc3C(=O)O)c3cc(OC)c(=O)c(Cl)c-3oc2c(Cl)c1O`, 0.31 µM; for `CCCCCCCC/C=C\CCCCCCCC(=O)NCCCOCC(O)COP(=O)(O)O[C@H]1C[C@H](n2cc(C)c(=O)[nH]c2=O)O[C@@H]1COP(=O)(O)O[C@H]1C[C@H](n2cnc3c(=O)[nH]c(N)nc32)O[C@@H]1COP(=O)(O)O[C@H]1C[C@H](n2cc(C)c(=O)[nH]c2=O)O[C@@H]1COP(=O)(O)O[C@H]1C[C@H](n2cnc3c(=O)[nH]c(N)nc32)O[C@@H]1COP(=O)(O)O[C@H]1C[C@H](n2cc(C)c(=O)[nH]c2=O)O[C@@H]1COP(=O)(O)O[C@H]1C[C@H](n2cc(C)c(=O)[nH]c2=O)O[C@@H]1COP(=O)(O)O[C@H]1C[C@H](n2cc(C)c(=O)[nH]c2=O)O[C@@H]1COP(=O)(O)O[C@H]1C[C@H](n2cc(C)c(=O)[nH]c2=O)O[C@@H]1COP(=O)(O)O[C@H]1C[C@H](n2cc(C)c(=O)[nH]c2=O)O[C@@H]1COP(=O)(O)O[C@H]1C[C@H](n2cnc3c(=O)[nH]c(N)nc32)O[C@@H]1COP(=O)(O)O[C@H]1C[C@H](n2cnc3c(=O)[nH]c(N)nc32)O[C@@H]1CO` (some centres undefined), 0.2 µM.
